For experiment [1], the system named is BALB/c mice. The experiment in a line: Spontaneous motor activity assay. Particulars: continuous mirtazapine 10 mg/kg/d (drug and always); day 22 after tumor inoculation. The experiment is classed as in vivo, mouse. As for the experimental part:
(§1) Second, all animal study protocols were approved by the Institutional Animal Care and Use Committee (IACAU) of National Yang Ming University. Mirtazapine (0.25 mg) was dissolved in 0.05 ml of 0.9% NaCl plus 0.5% absolute ethanol for each mouse (i.e. 10 mg/kg.) Male BALB/c mice (initial weights 25±2 g, and purchased from the National Laboratory Animal Center, Taipei, Taiwan) were housed in the cages, five mice per cage, under a 12:12 h reverse light/dark cycle with lights off at 6 pm Animals were handled and weighed daily for a week to reduce any non-specific stress responses. […] “Wild-type” means the mice are monitored without tumor inoculation and mirtazapine treatment, drug means the mice are monitored with continuous mirtazapine treatment but without tumor inoculation, never means the mice are monitored with tumor inoculation and daily 0.05 ml of 0.9% NaCl plus 0.5% absolute ethanol treatment but without mirtazapine treatment, always means the mice are monitored with mirtazapine treatment initiated 2 weeks before the tumor inoculation, and concurrent means the mice are monitored with tumor inoculation and mirtazapine treatment on the same day, and after means the mice are monitored with mirtazapine treatment initiated 2 weeks post the tumor inoculation. […]

Experiment [2] deals with CT26/luc tumor. Description: CT26/luc tumor growth in BALB/c mice (caliper tumor volume, BLI). The format is in vivo, mouse. Also noted: mean tumor growth time / mean tumor growth delay time: unit not given here. Particulars: for mean tumor growth delay time: growth time of treated group minus that of never; for mean tumor growth time: time at which tumor volume reaches 400 mm; for mean tumor growth inhibition rate: growth rate of treated group/growth rate of never. The procedure:
The details in preparing the materials and processing relative analyses will be illustrated as follows. First, CT-26 murine colon carcinoma cells (obtained from Taiwan Liposome Company, Taipei, Taiwan) were transfected with the luciferase gene (hereafter called “CT26/luc”). The CT26/luc tumor cells were cultured in RPMI 1640 medium (Invitrogen) supplemented with 10% fetal bovine serum (Hyclone), 100 units/ml of penicillin, and […] streptomycin (Gibco-BRL) at 37° C. in a 5% CO2 atmosphere.
(§2) Second, all animal study protocols were approved by the Institutional Animal Care and Use Committee (IACAU) of National Yang Ming University. Mirtazapine (0.25 mg) was dissolved in 0.05 ml of 0.9% NaCl plus 0.5% absolute ethanol for each mouse (i.e. 10 mg/kg.) Male BALB/c mice (initial weights 25±2 g, and purchased from the National Laboratory Animal Center, Taipei, Taiwan) were housed in the cages, five mice per cage, under a 12:12 h reverse light/dark cycle with lights off at 6 pm Animals were handled and weighed daily for a week to reduce any non-specific stress responses. And then, please refer to FIG. 1A and FIG. 1B, FIG. 1A and FIG. 1B are diagrams showing the experimental designs according to an embodiment of the present invention. […] “Wild-type” means the mice are monitored without tumor inoculation and mirtazapine treatment, drug means the mice are monitored with continuous mirtazapine treatment but without tumor inoculation, never means the mice are monitored with tumor inoculation and daily 0.05 ml of 0.9% NaCl plus 0.5% absolute ethanol treatment but without mirtazapine treatment, always means the mice are monitored with mirtazapine treatment initiated 2 weeks before the tumor inoculation, and concurrent means the mice are monitored with tumor inoculation and mirtazapine treatment on the same day, and after means the mice are monitored with mirtazapine treatment initiated 2 weeks post the tumor inoculation. That is, the mice were assayed on day 22 for behaviors, and then sacrificed for the measurement of lymphocyte subsets and performed with ex vivo autoradiography.
Accordingly, the CT26/luc cells (2×10^6 cells/200 μL) suspended in the serum-free RPMI medium were transplanted subcutaneously into the dorsal region of the right thighs of the BALB/c mice. 10 mg/kg/d mirtazapine dissolved in 0.9% sodium chloride and 0.5% ethanol was administered to mice by gavage daily till mice expired or terminated on day 67 post tumor inoculation. Survival rate and interval were assayed for never, always, concurrent, and after (n=10 per group).
As to the tumor growth, it was monitored using a digital caliper twice a week. The tumor volume was calculated according the following formula: […]
0.5236×length×width×thickness
Bioluminescence imaging (hereafter called “BLI”) used for tumor size tracking was performed with an IVIS50 animal imaging system (Xenogen Corp., USA).

A further experiment deals with TNF-α. Description: TNF-α in tumor by ex vivo Western blotting. The note with it: Always, Concurrent and After; day 42 post tumor inoculation; decreased to % of Never. On the set-up: species or system mouse. As for the experimental part:
As to the quantification of TNF-α, the whole blood withdrawn from the pouch of each mouse once a week for up to 6 weeks was centrifuged at 600×g for 20 min, and serum was collected. The serum TNF-α level was evaluated with an ELISA kit (eBioscience, USA). The level of TNF-α in the tumor of mice on day 42 post tumor inoculation was determined using ex vivo Western Blotting assay. Briefly, 6 weeks after tumor inoculation, the mice were sacrificed and the tumors were quickly removed and minced, then added with lysis buffer containing 1% protease inhibitor cocktail (T-PER tissue protein extraction reagent, Thermo Scientific, USA). Equal amounts of proteins (40 μg) were subjected to SDS-PAGE and transferred to PVDF membranes (Millipore, Bedford, Mass.). Non-specific binding was blocked by incubation with 5% non-fat milk. Membrane was incubated with antibodies against TNF-α (Abbiotec, USA) and β-actin (Millipore, USA) overnight at 4° C. The goat-anti rabbit IgG (Millipore) and goat-anti mouse IgG conjugated with horseradish peroxidase (Millipore) were used as the secondary antibodies. The band signal from the antigen-antibody binding was illustrated with enhanced chemoluminescence system (ECL, Millipore). Image J software (National Institutes of Health, USA) was used for the quantitative analysis.

A further experiment concerns CD4+ and CD8+ T cells. The experiment in a line: Immunohistostaining of infiltrating CD4+ and CD8+ T cells in tumor tissues. Particulars: concurrent and always vs never; day 42 post tumor inoculation; p<0.01 and p<0.001. The experiment is classed as in vivo, mouse.
Experiment [3] relates to BALB/c mice. Description: Tail suspension test (immobility time). The experiment is classed as in vivo, mouse. The note with it: continuous mirtazapine 10 mg/kg/d (drug and always); day 22 after tumor inoculation. As for the experimental part:
as §1

Experiment [4] deals with CT26/luc tumor. The experiment in a line: CT26/luc tumor growth in SCID mice. The experiment is classed as in vivo, mouse. Particulars: always-SCID vs never-SCID. The source says:
Also, Applicant divides other six-weeks-old immunodeficient male SCID mice (purchased from the National Laboratory Animal Center, Taiwan) into two groups, such as the group named “never-SCID” (hereafter called “never-SCID”) and the group named “always-SCID” (hereafter called “always-SCID”), as control groups for verifying the involvement of the immune system in the inhibition of the tumor growth by mirtazapine. Never-SCID means that the mice are monitored with tumor inoculation but without mirtazapine treatment, and always-SCID means the mice are monitored with mirtazapine treatment initiated 2 weeks before tumor inoculation. As to the tumor growth, it was monitored using a digital caliper twice a week. The tumor volume was calculated according the following formula: 0.5236×length×width×thickness Bioluminescence imaging (hereafter called “BLI”) used for tumor size tracking was performed with an IVIS50 animal imaging system (Xenogen Corp., USA).

The test system of experiment [5] is CT26/luc tumor. Description: Survival of CT26/luc tumor-bearing BALB/c mice. The experiment is classed as in vivo, mouse. The note with it: 10 mg/kg/d by gavage, never 43.1±2.6 days. As for the experimental part: as §2
Accordingly, the CT26/luc cells (2×10^6 cells/200 μL) suspended in the serum-free RPMI medium were transplanted subcutaneously into the dorsal region of the right thighs of the BALB/c mice. 10 mg/kg/d mirtazapine dissolved in 0.9% sodium chloride and 0.5% ethanol was administered to mice by gavage daily till mice expired or terminated on day 67 post tumor inoculation. Survival rate and interval were assayed for never, always, concurrent, and after (n=10 per group). […]

Consider one compound from patent US20140271727A1, “METHOD OF USING AN ANTIDEPRESSANT FOR INCREASING IMMUNITY OF A SUBJECT AND TREATING CANCER” (NATIONAL YANG-MING UNIVERSITY, priority 2013, published 2014).

Each structure is given as a SMILES string.

Method for CD4+ and CD8+ T cells: Immunohistochemistry (IHC) of CD4 and CD8 was also performed on day 42 post the tumor inoculation. Tumors were then removed, paraffin embedded, and 5-mm sectioning was performed. The sections were immunohistostained with antibodies against CD4 (BioLegend, USA) and CD8 (BioLegend, USA), respectively. The procedures of immunohistostaining were followed the protocols provided with the IHC kit (Millipore, USA). All images were digitally captured on a Scanscope CS system (Aperio, USA).

On to `CN1CCN2c3ncccc3Cc3ccccc3C2C1` (stereo not drawn) [mirtazapine], for which the spontaneous motor activity result in the experiment with BALB/c mice [1] is “no effect”. Moreover, the tumor growth inhibition result in the experiment on CT26/luc tumor [2] (always, concurrent and after vs never, day 22-47 after tumor inoculation, p<0.01) is listed as “significant tumor growth inhibition”. In addition, the “mean tumor growth delay time” value with CT26/luc tumor [2] (group Always (2 weeks before inoculation)) came to 18.8; in the experiment on CT26/luc tumor [2] (group Concurrent (same day as inoculation)), 8.2; with CT26/luc tumor [2] (group after (2 weeks post inoculation)), 2.8. The entries for the “mean tumor growth time” value with CT26/luc tumor [2] (group Always: mirtazapine 10 mg/kg/d by gavage initiated 2 weeks before tumor inoculation), with CT26/luc tumor [2] (group Concurrent: mirtazapine 10 mg/kg/d from the day of tumor inoculation) and with CT26/luc tumor [2] (group after: mirtazapine 10 mg/kg/d initiated 2 weeks post tumor inoculation) were 41.3, 30.9 and 25.4, respectively. Besides, the “mean tumor growth inhibition rate” value in the experiment on CT26/luc tumor [2] (group Always) stood at 1.8; in the experiment on CT26/luc tumor [2] (group Concurrent), 1.4; with CT26/luc tumor [2] (group after) it was 1.1. The “TNF-α level in tumors relative to Never” value in the experiment with TNF-α amounted to 40%. Also, in the experiment with CD4+ and CD8+ T cells, the “infiltrating CD4+ and CD8+ cells/0.1 mm^2 tumor tissues” value is recorded as “significantly increased numbers”. Further, the immobility time entry in the experiment on BALB/c mice [3] was “significantly decreased”. The “tumor inhibition effect in SCID mice” value with CT26/luc tumor [4] is “not found”. Besides, the survival time in the experiment on CT26/luc tumor [5] (group after) was 57.01 ± 3.2 days; with CT26/luc tumor [5] (group always, terminated on day 67), 66.91 ± 0.1 days; in the experiment on CT26/luc tumor [5] (group concurrent) it was 63.61 ± 1.5 days.
